According to paper PMC2803436 (Current Chemical Genomics, 2008):
Non-standard residues stand in square brackets, D forms with d. Residues, ends and D or L forms follow the SMILES beside them. Nle = CCCC[C@H](N)C(=O)O

Tests used:
TEV protease [1] = molecular target: T1, TEV protease (Tobacco etch virus, UniProt P04517); assay: Protein fusion; assay type: biochemical; details: tested from 0 – 0.1 mM
T1 sequence (P04517 2038-2279): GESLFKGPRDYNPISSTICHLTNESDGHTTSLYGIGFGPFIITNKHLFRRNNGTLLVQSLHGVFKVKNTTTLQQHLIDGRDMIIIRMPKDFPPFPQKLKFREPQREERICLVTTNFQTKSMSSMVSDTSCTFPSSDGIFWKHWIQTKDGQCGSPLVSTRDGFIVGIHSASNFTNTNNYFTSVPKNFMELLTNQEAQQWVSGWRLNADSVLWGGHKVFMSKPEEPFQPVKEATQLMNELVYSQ

TEV protease [2] = molecular target: T1, TEV protease; assay: CP234-Luc/ENLYFQC verification assay; details: SCH HBr and L-DOPA tested from 0 – 1 mM; NF-023 and ATA from 0 – 0.2 mM
TEV protease [3] = assay: Initial tests of established inhibitors on TEV protease; assay type: biochemical, Tobacco Etch Virus; details: for Inhibition of TEV protease by known inhibitors of cysteine proteases: data not shown
TEV protease [4] = molecular target: T1, TEV protease; assay: LOPAC1280 library screen using the CP234-Luc/ENLYFQC protease assay; assay type: biochemical; details: compounds at 100 µM, 15 minutes at room temperature

Row | Compound | Inhibition of TEV protease cleavage in re-test, CP234-Luc/ENLYFQC assay (TEV protease [2]) | Inhibition of TEV protease by known inhibitors of cysteine proteases (TEV protease [3]) | further results
1 | 2,5-dihydroxy-DL-tyrosine [L-DOPA] | did not inhibit | – | Inhibition of TEV protease cleavage in re-test, protein fusion cleavage assay (TEV protease [1]): did not inhibit
2 | CCOC(=O)[C@H]1O[C@@H]1C(=O)N[C@@H](CC(C)C)C(=O)NCCC(C)C (relative stereo) [EST, (2S,3S)-trans-Epoxysuccinyl-L-leucylamido-3-methylbutane Ethyl Ester] | – | resistant | –
3 | CCCC[C@@H](C=O)NC(=O)[C@H](CC(C)C)NC(=O)[C@H](CC(C)C)NC(C)=O [ALLN, N-acetyl-Leu-Leu-NIe-CHO] (Ac-Leu-Leu-[Nle]-aldehyde) | – | resistant | –
4 | O=C(O)C1=CC(=C(c2ccc(O)c(C(=O)O)c2)c2ccc(O)c(C(=O)O)c2)C=CC1=O [ATA, aurintricarboxylic acid] | confirmed | – | TEV protease inhibition (cleavage of CP234-Luc/ENLYFQC) in primary screen (TEV protease [4]): greater than 60%
5 | CC(C)C[C@H](NC(=O)[C@H]1O[C@@H]1C(=O)O)C(=O)NCCCCN=C(N)N [E-64] | – | resistant | –
6 | Br.CN=c1nc(-c2ccccc2)n(-c2ccccc2)s1 [SCH HBr, N-(2,3-diphenyl-1,2,4-thiadiazol-5-(2H)-ylidene)methanamine hydrobromide] | did not inhibit | – | Inhibition of TEV protease cleavage in re-test, protein fusion cleavage assay (TEV protease [1]): did not inhibit
7 | [Zn] [zinc] | – | – | Inhibition of TEV protease (TEV protease [3]; 5 mM, also frequently precipitated the proteins out of solution): effectively inhibited
